Values joined by “and” are separate entries in the source; they are usually repeats but may differ in a detail not shown here. Equal entries are not always repeated. Where two headings read alike, the source gives them in different places.
What was measured:
[1] = test system: Salmonella typhimurium TA97a; settings: TA 97a, no S9
Experimental: (§1) In the preincubation experiment, test compounds and mutagen, each having a volume of 0.1 mL of varying concentrations, were preincubated at 37°C for 30 min and then 0.1 mL of 1 × 10^7 CFU/mL density of the bacterial culture was added, followed by the addition of 2.5 mL of top agar at 45°C (containing 0.5% NaCl and 0.6% agar) supplemented with 0.5 mM histidine-biotin. […] The combined solutions were vortexed and poured onto minimal glucose plates (40% glucose solution and Vogel Bonner medium). The plates were incubated at 37°C for 48 h and the numbers of histidine-independent revertants colonies were scored.
(§2) Survival of the bacteria was routinely monitored for each experiment. Parallel controls were run with compounds alone at all concentrations to test the possible toxicity. The concentrations of the test samples for investigating the antimutagenicity were 50, 100, 200, and 500 μM. […] All the test samples and mutagens were dissolved in DMSO (final conc., 0.01%). […] Plates were set up in triplicate for each concentration and the entire experiment was repeated three times. Inhibition of mutagenicity was expressed as percentage decrease of reverse mutation and calculated as (1) Percent inhibition=[(a−b)/(a−c)]×100, where a = number of histidine revertants induced by mutagen, b = number of histidine revertants induced by mutagen in the presence of test compound, and c = number of revertants induced in negative control.

[2] = test system: Salmonella typhimurium TA98; settings: TA 98, no S9
Experimental: as §1, §2

[3] = test system: Salmonella typhimurium TA102; settings: TA 102, no S9
Experimental: as §1, §2

[4] = test system: Salmonella typhimurium TA100; settings: TA 100, no S9
Experimental: as §1, §2

[5] = positive control MMS 1.5 μg (Table 8)

SMILES	Number of His+ revertants colonies/plate ([1]; positive control MMS 1.0 μg)	Number of His+ revertants colonies/plate [1, 5] [colonies/plate]	Number of His+ revertants colonies/plate ([2]; positive control MMS 1.0 μg) [colonies/plate]	Number of His+ revertants colonies/plate [2, 5] [colonies/plate]	Number of His+ revertants colonies/plate ([3]; positive control MMS 1.0 μg) [colonies/plate]	Number of His+ revertants colonies/plate [3, 5] [colonies/plate]	Number of His+ revertants colonies/plate ([4]; positive control MMS 1.0 μg) [colonies/plate]	Number of His+ revertants colonies/plate [4, 5] [colonies/plate]	Number of His+ revertants colonies/plate ([1]; positive control NaN3 1.5 μg) [colonies/plate]	Number of His+ revertants colonies/plate ([2]; positive control NaN3 1.5 μg) [colonies/plate]	Number of His+ revertants colonies/plate ([3]; positive control NaN3 1.5 μg)	Number of His+ revertants colonies/plate ([4]; positive control NaN3 1.5 μg) [colonies/plate]
COS(C)(=O)=O [MMS, Methyl methanesulfonate, reference compound]	449 colonies/plate and 449.7 ± 7.2 colonies/plate	449.7 ± 7.2	53.7 ± 1.5	53.7 ± 1.5	1237.0 ± 14.5	1237.0 ± 14.5	963.0 ± 11.4	963.0 ± 11.4				
[N-]=[N+]=[N-].[Na+] [NaN3, Sodium azide, reference compound]									256.0 ± 11.7	52.3 ± 1.8	370.0 ± 9.0 colonies/plate and 355.0 ± 15.5 colonies/plate	361.3 ± 11.0
